System: MV-4-11 cells
Experiment: Gene expression microarray analysis (Affymetrix PrimeView) and GSEA
Assay type: cell-based, human
Design: RFU PODN (11730768_x_at) / Fold change /veh PODN (11730768_x_at) / RFU LINC00158 (11744669_a_at) / Fold change /veh LINC00158 (11744669_a_at) / RFU DUSP10 (11751237_a_at) / Fold change /veh DUSP10 (11751237_a_at) / RFU ID3 (11757404_x_at) / Fold change /veh ID3 (11757404_x_at) / RFU PLEKHG5 (11737974_s_at) / Fold change /veh PLEKHG5 (11737974_s_at) / RFU LRRC4B (11730491_at) / Fold change /veh LRRC4B (11730491_at) / RFU GIMAP4 (11747438_a_at) / Fold change /veh GIMAP4 (11747438_a_at) / RFU KRT8 (11758183_x_at) / Fold change /veh KRT8 (11758183_x_at) / RFU CNN1 (11734310_a_at) / Fold change /veh CNN1 (11734310_a_at) / RFU VPS37D (11726825_at) / Fold change /veh VPS37D (11726825_at) / RFU C10orf10 (11716522_x_at) / Fold change /veh C10orf10 (11716522_x_at) / RFU KIR2DL2 /// KIR2DL4 /// KIR2DL5A /// KIR2DL5B /// KIR2DS1 /// KIR2DS2 /// KIR2DS3 /// KIR2DS4 /// KIR3DL3 /// KIR3DL3 /// KIR3DS1 (11738374_at) / Fold change /veh KIR2DL2 /// KIR2DL4 /// KIR2DL5A /// KIR2DL5B /// KIR2DS1 /// KIR2DS2 /// KIR2DS3 /// KIR2DS4 /// KIR3DL3 /// KIR3DL3 /// KIR3DS1 (11738374_at) / RFU C1QL1 (11718748_at) / Fold change /veh C1QL1 (11718748_at) / RFU TMPRSS4 (11747572_a_at) / Fold change /veh TMPRSS4 (11747572_a_at) / RFU HAMP (11756126_x_at) / Fold change /veh HAMP (11756126_x_at) / RFU RNFT2 (11725882_a_at) / Fold change /veh RNFT2 (11725882_a_at) / RFU NR4A2 (11747474_a_at) / Fold change /veh NR4A2 (11747474_a_at) / RFU ABCC12 (11746883_a_at) / Fold change /veh ABCC12 (11746883_a_at) / RFU TMEM136 (11760407_x_at) / Fold change /veh TMEM136 (11760407_x_at) / RFU CLDN22 /// WWC2 (11732394_at) / Fold change /veh CLDN22 /// WWC2 (11732394_at) / RFU HLA-DPB1 (11760878_x_at) / Fold change /veh HLA-DPB1 (11760878_x_at) / RFU SPINT1 (11716480_a_at) / Fold change /veh SPINT1 (11716480_a_at) / RFU GAP43 (11754022_s_at) / Fold change /veh GAP43 (11754022_s_at) / RFU A4GNT (11735810_at) / Fold change /veh A4GNT (11735810_at) / RFU PRB3 (11715151_x_at) / Fold change /veh PRB3 (11715151_x_at) / RFU TUBB4B (11761932_at) / Fold change /veh TUBB4B (11761932_at) / RFU CAPN14 (11732068_a_at) / Fold change /veh CAPN14 (11732068_a_at) / RFU TMCC2 (11721928_a_at) / Fold change /veh TMCC2 (11721928_a_at) / RFU IRGQ (11745062_a_at) / Fold change /veh IRGQ (11745062_a_at) / RFU FAM174B (11720279_a_at) / Fold change /veh FAM174B (11720279_a_at) / RFU TMPRSS4 (11748680_a_at) / Fold change /veh TMPRSS4 (11748680_a_at) / RFU FAM212B (11763350_a_at) / Fold change /veh FAM212B (11763350_a_at) / RFU PLEKHG5 (11743358_a_at) / Fold change /veh PLEKHG5 (11743358_a_at) / RFU ZSCAN30 (11745921_a_at) / Fold change /veh ZSCAN30 (11745921_a_at) / RFU CMKLR1 (11741424_a_at) / Fold change /veh CMKLR1 (11741424_a_at) / RFU LOC101060620 /// MAPK8IP1 (11723275_at) / Fold change /veh LOC101060620 /// MAPK8IP1 (11723275_at) / RFU SPTSSB (11747773_x_at) / Fold change /veh SPTSSB (11747773_x_at) / RFU PRSS12 (11739890_at) / Fold change /veh PRSS12 (11739890_at) / RFU BIN1 (11741810_x_at) / Fold change /veh BIN1 (11741810_x_at) / RFU WNT11 (11732464_a_at) / Fold change /veh WNT11 (11732464_a_at) / RFU C10orf10 (11716521_a_at) / Fold change /veh C10orf10 (11716521_a_at) / RFU C5orf56 (11738089_at) / Fold change /veh C5orf56 (11738089_at) / RFU CYB561 (11721691_x_at) / Fold change /veh CYB561 (11721691_x_at) / RFU ANKRD19P (11752326_a_at) / Fold change /veh ANKRD19P (11752326_a_at) / RFU OR2T12 /// OR2T33 /// OR2T8 (11738714_s_at) / Fold change /veh OR2T12 /// OR2T33 /// OR2T8 (11738714_s_at) / RFU VCAN (11748164_a_at) / Fold change /veh VCAN (11748164_a_at) / RFU JSRP1 (11732532_at) / Fold change /veh JSRP1 (11732532_at) / RFU KRTAP10-11 (11738290_x_at) / Fold change /veh KRTAP10-11 (11738290_x_at) / RFU MYO3A (11730013_a_at) / Fold change /veh MYO3A (11730013_a_at) / RFU EBF3 (11725865_a_at) / Fold change /veh EBF3 (11725865_a_at) / RFU CAMK2N1 (11719241_x_at) / Fold change /veh CAMK2N1 (11719241_x_at) / RFU C5orf56 (11738088_a_at) / Fold change /veh C5orf56 (11738088_a_at) / RFU OLFML3 (11715873_a_at) / Fold change /veh OLFML3 (11715873_a_at) / RFU LOC100653217 /// NTM (11731650_a_at) / Fold change /veh LOC100653217 /// NTM (11731650_a_at) / RFU MAPK11 (11762145_a_at) / Fold change /veh MAPK11 (11762145_a_at) / RFU FIZ1 (11724087_x_at) / Fold change /veh FIZ1 (11724087_x_at) / RFU OASL (11726364_x_at) / Fold change /veh OASL (11726364_x_at) / RFU SOX15 (11748057_x_at) / Fold change /veh SOX15 (11748057_x_at) / RFU CD79A (11719716_a_at) / Fold change /veh CD79A (11719716_a_at) / RFU HIST1H1D (11736915_at) / Fold change /veh HIST1H1D (11736915_at) / RFU CASKIN2 (11723855_a_at) / Fold change /veh CASKIN2 (11723855_a_at) / RFU LOC730098 (11760151_x_at) / Fold change /veh LOC730098 (11760151_x_at) / RFU OR4N2 (11742367_at) / Fold change /veh OR4N2 (11742367_at) / RFU PRRT2 (11749266_a_at) / Fold change /veh PRRT2 (11749266_a_at) / RFU SNX32 (11753110_a_at) / Fold change /veh SNX32 (11753110_a_at) / RFU CDHR5 (11726645_a_at) / Fold change /veh CDHR5 (11726645_a_at) / RFU RCAN1 (11760418_a_at) / Fold change /veh RCAN1 (11760418_a_at) / RFU FAM167A (11723789_a_at) / Fold change /veh FAM167A (11723789_a_at) / RFU FAM26E (11764081_at) / Fold change /veh FAM26E (11764081_at) / RFU ISYNA1 (11749810_s_at) / Fold change /veh ISYNA1 (11749810_s_at) / RFU ACY1 (11761880_at) / Fold change /veh ACY1 (11761880_at) / RFU 11764098_at / Fold change /veh 11764098_at / RFU SAMD14 (11745864_x_at) / Fold change /veh SAMD14 (11745864_x_at) / RFU NPB (11741838_a_at) / Fold change /veh NPB (11741838_a_at) / RFU TMPRSS6 (11731388_a_at) / Fold change /veh TMPRSS6 (11731388_a_at) / RFU KRTAP10-2 (11738614_at) / Fold change /veh KRTAP10-2 (11738614_at) / RFU ARHGAP8 /// PRR5-ARHGAP8 (11727945_x_at) / Fold change /veh ARHGAP8 /// PRR5-ARHGAP8 (11727945_x_at) / RFU KRTAP5-7 /// NADSYN1 (11734609_at) / Fold change /veh KRTAP5-7 /// NADSYN1 (11734609_at) / RFU RASL12 (11751679_a_at) / Fold change /veh RASL12 (11751679_a_at) / RFU CDKN2B (11736163_a_at) / Fold change /veh CDKN2B (11736163_a_at) / RFU PRF1 (11729649_at) / Fold change /veh PRF1 (11729649_at) / RFU, ZNF638 /// ZNF638-IT1 / Fold change vs veh, ZNF638 /// ZNF638-IT1 / RFU, PANK3 / Fold change vs veh, PANK3 / RFU, SH3YL1 / Fold change vs veh, SH3YL1 / RFU, ZEB2 / Fold change vs veh, ZEB2 / RFU, NRIP1 / Fold change vs veh, NRIP1 / RFU, PTTG1IP / Fold change vs veh, PTTG1IP / RFU, CAPN2 / Fold change vs veh, CAPN2 / RFU, MED14 / Fold change vs veh, MED14 / RFU, SNORA58 / Fold change vs veh, SNORA58 / RFU, C1orf63 / Fold change vs veh, C1orf63 / RFU, LRRFIP1 / Fold change vs veh, LRRFIP1 / RFU, NDUFAF7 / Fold change vs veh, NDUFAF7 / RFU, SLC12A2 / Fold change vs veh, SLC12A2 / RFU, IBTK / Fold change vs veh, IBTK / RFU, ESF1 / Fold change vs veh, ESF1 / Fold change vs veh, TMEM50B / RFU, TAOK1 / Fold change vs veh, TAOK1 / RFU, ACBD3 / Fold change vs veh, ACBD3 / RFU, TMA16 / Fold change vs veh, TMA16 / RFU, RWDD3 / Fold change vs veh, RWDD3 / RFU, BCAT1 / Fold change vs veh, BCAT1 / RFU, EDEM3 / Fold change vs veh, EDEM3 / RFU, TMEM33 / Fold change vs veh, TMEM33 / RFU, WDR75 / Fold change vs veh, WDR75 / RFU, AHCTF1 / Fold change vs veh, AHCTF1 / RFU, TFRC / Fold change vs veh, TFRC / RFU, ZDHHC17 / Fold change vs veh, ZDHHC17 / RFU, NOM1 / Fold change vs veh, NOM1 / RFU, ARL8B / Fold change vs veh, ARL8B / RFU, ZBTB11 / Fold change vs veh, ZBTB11 / RFU, TAMM41 / Fold change vs veh, TAMM41 / RFU, KIAA1704 /// LOC100996395 / Fold change vs veh, KIAA1704 /// LOC100996395 / RFU, ING1 / Fold change vs veh, ING1 / RFU, TRMT61B / Fold change vs veh, TRMT61B / RFU, FUBP3 / Fold change vs veh, FUBP3 / RFU, TP53 / Fold change vs veh, TP53 / RFU, TNKS2 / Fold change vs veh, TNKS2 / RFU, ZFP14 / Fold change vs veh, ZFP14 / RFU, ACTR2 / Fold change vs veh, ACTR2 / RFU, PPP3R1 / Fold change vs veh, PPP3R1 / RFU, PIK3R1 / Fold change vs veh, PIK3R1 / RFU, HNRNPA1 / Fold change vs veh, HNRNPA1 / RFU, RNF170 / Fold change vs veh, RNF170 / RFU, ZNF28 / Fold change vs veh, ZNF28 / RFU, RNGTT / Fold change vs veh, RNGTT / RFU, OGT / Fold change vs veh, OGT / RFU, BRD1 / Fold change vs veh, BRD1 / RFU, MARS / Fold change vs veh, MARS / RFU, ZNF655 / Fold change vs veh, ZNF655 / RFU, FAHD1 / Fold change vs veh, FAHD1 / RFU, BDP1 / Fold change vs veh, BDP1 / RFU, LRRCC1 / Fold change vs veh, LRRCC1 / RFU, ARID1A / Fold change vs veh, ARID1A / RFU, ZNF146 / Fold change vs veh, ZNF146 / RFU, ZNF330 / Fold change vs veh, ZNF330 / RFU, GPN3 / Fold change vs veh, GPN3 / RFU, C9orf123 / Fold change vs veh, C9orf123 / RFU, N4BP2L2 / Fold change vs veh, N4BP2L2 / RFU, ARFIP1 / Fold change vs veh, ARFIP1 / RFU, FAM179B / Fold change vs veh, FAM179B / RFU, BCL10 / Fold change vs veh, BCL10 / RFU, UHRF1BP1L / Fold change vs veh, UHRF1BP1L / RFU, BET1 / Fold change vs veh, BET1 / RFU, CNOT2 / Fold change vs veh, CNOT2 / RFU, ZNF268 / Fold change vs veh, ZNF268 / Fold change vs veh, ZNF507 / RFU, DGCR2 / Fold change vs veh, DGCR2 / RFU, WDSUB1 / Fold change vs veh, WDSUB1 / Fold change vs veh, HSP90B1 /// MIR3652 / RFU, ADSS / Fold change vs veh, ADSS / RFU, GK / Fold change vs veh, GK / RFU, ZNF148 / Fold change vs veh, ZNF148 / RFU, TAF9 / Fold change vs veh, TAF9 / RFU, SLC1A5 / Fold change vs veh, SLC1A5 / RFU, SLMO2 / Fold change vs veh, SLMO2 / RFU, ABCC4 / Fold change vs veh, ABCC4 / RFU, LOC101060439 /// RAP1B / Fold change vs veh, LOC101060439 /// RAP1B / RFU, RFX7 / Fold change vs veh, RFX7 / RFU, GTPBP10 / Fold change vs veh, GTPBP10 / RFU, CNEP1R1 / Fold change vs veh, CNEP1R1 / RFU, BIVM-ERCC5 /// ERCC5 / Fold change vs veh, BIVM-ERCC5 /// ERCC5 / RFU, ILF3 / Fold change vs veh, ILF3 / RFU 11762660_at / Fold change /veh 11762660_at / RFU VCAN (11757783_s_at) / Fold change /veh VCAN (11757783_s_at) / RFU DDX43 (11728927_at) / Fold change /veh DDX43 (11728927_at) / RFU KRT8 (11758188_x_at) / Fold change /veh KRT8 (11758188_x_at) / RFU NKD1 (11759106_at) / Fold change /veh NKD1 (11759106_at) / RFU SRD5A1 (11742802_a_at) / Fold change /veh SRD5A1 (11742802_a_at) / RFU TPSAB1 /// TPSB2 (11721975_s_at) / Fold change /veh TPSAB1 /// TPSB2 (11721975_s_at) / RFU GSTM3 (11746129_a_at) / Fold change /veh GSTM3 (11746129_a_at) / RFU IL23R (11737362_x_at) / Fold change /veh IL23R (11737362_x_at) / RFU TMEM51 (11727254_a_at) / Fold change /veh TMEM51 (11727254_a_at) / RFU PIWIL2 (11732686_x_at) / Fold change /veh PIWIL2 (11732686_x_at) / RFU ORM1 (11744905_x_at) / Fold change /veh ORM1 (11744905_x_at) / RFU CCDC152 (11743942_at) / Fold change /veh CCDC152 (11743942_at) / RFU ECM1 (11717891_a_at) / Fold change /veh ECM1 (11717891_a_at) / RFU IL23R (11748794_a_at) / Fold change /veh IL23R (11748794_a_at) / RFU TNFAIP8L3 (11732012_x_at) / Fold change /veh TNFAIP8L3 (11732012_x_at) / RFU MBOAT4 (11741988_at) / Fold change /veh MBOAT4 (11741988_at) / RFU 11764193_at / Fold change /veh 11764193_at / RFU TMEM53 (11763286_at) / Fold change /veh TMEM53 (11763286_at) / RFU MAGEB2 (11727129_at) / Fold change /veh MAGEB2 (11727129_at) / RFU TMEM200A (11744735_a_at) / Fold change /veh TMEM200A (11744735_a_at) / RFU CCDC152 (11751479_a_at) / Fold change /veh CCDC152 (11751479_a_at) / RFU FAM211A (11726209_a_at) / Fold change /veh FAM211A (11726209_a_at) / RFU RGS16 (11746705_a_at) / Fold change /veh RGS16 (11746705_a_at) / RFU VCAN (11755009_s_at) / Fold change /veh VCAN (11755009_s_at) / RFU RHOB (11743442_s_at) / Fold change /veh RHOB (11743442_s_at) / RFU RGS16 (11720943_a_at) / Fold change /veh RGS16 (11720943_a_at) / RFU RGS16 (11720944_at) / Fold change /veh RGS16 (11720944_at) / RFU, VPS4B / Fold change vs veh, VPS4B / RFU, CREB1 / Fold change vs veh, CREB1 / RFU, DNAJC13 / Fold change vs veh, DNAJC13 / RFU, GNAQ / Fold change vs veh, GNAQ / RFU, CDK5R1 / Fold change vs veh, CDK5R1 / RFU, ZRANB3 / Fold change vs veh, ZRANB3 / RFU, CUL4A / Fold change vs veh, CUL4A / RFU, CCNY / Fold change vs veh, CCNY / RFU, UFL1 / Fold change vs veh, UFL1 / RFU, COG3 / Fold change vs veh, COG3 / RFU, DIAPH2 / Fold change vs veh, DIAPH2 / RFU, SKA2 / Fold change vs veh, SKA2 / RFU, AFF3 / Fold change vs veh, AFF3 / RFU, LMF1 / Fold change vs veh, LMF1 / RFU, IPO11 / Fold change vs veh, IPO11 / RFU, DFFB / Fold change vs veh, DFFB / RFU, FOXP1 / Fold change vs veh, FOXP1 / RFU, CARD8 / Fold change vs veh, CARD8 / RFU, STRN3 / Fold change vs veh, STRN3 / RFU, ADK / Fold change vs veh, ADK / RFU, RASSF2 / Fold change vs veh, RASSF2 / RFU, WIPF1 / Fold change vs veh, WIPF1 / RFU, LARP1B / Fold change vs veh, LARP1B / RFU, RASA1 / Fold change vs veh, RASA1 / RFU, RB1 / Fold change vs veh, RB1 / RFU, PPFIA1 / Fold change vs veh, PPFIA1 / RFU, MAT2A / Fold change vs veh, MAT2A / RFU, CCT5 / Fold change vs veh, CCT5 / RFU, WDR92 / Fold change vs veh, WDR92 / RFU, CUX1 / Fold change vs veh, CUX1 / RFU, TTC7A / Fold change vs veh, TTC7A / RFU, TMEM135 / Fold change vs veh, TMEM135 / RFU, DEPTOR / Fold change vs veh, DEPTOR / RFU, CPM / Fold change vs veh, CPM / RFU, DNAJB6 / Fold change vs veh, DNAJB6 / RFU, CACNA2D3 / Fold change vs veh, CACNA2D3 / RFU, DTX4 / Fold change vs veh, DTX4 / RFU, TFCP2 / Fold change vs veh, TFCP2 / RFU, GMCL1 /// GMCL1P1 / Fold change vs veh, GMCL1 /// GMCL1P1 / RFU, AEBP2 / Fold change vs veh, AEBP2 / RFU, SNHG1 /// SNORD22 /// SNORD25 /// SNORD26 /// SNORD27 /// SNORD28 /// SNORD29 /// SNORD31 / Fold change vs veh, SNHG1 /// SNORD22 /// SNORD25 /// SNORD26 /// SNORD27 /// SNORD28 /// SNORD29 /// SNORD31 / Fold change (Aza/veh), C12orf56 (ProbeSet 11735607_a_at) / Fold change (ACY-1035/veh), C12orf56 (ProbeSet 11735607_a_at) / Fold change (Aza/veh), FGFR1OP (ProbeSet 11751329_s_at) / Fold change (ACY-1035/veh), FGFR1OP (ProbeSet 11751329_s_at) / Fold change (Aza/veh), VPS36 (ProbeSet 11739960_a_at) / Fold change (ACY-1035/veh), VPS36 (ProbeSet 11739960_a_at) / RFU SYPL1 (11715823_x_at) / Fold change /veh SYPL1 (11715823_x_at) / RFU IGFBP7 (11715501_s_at) / Fold change /veh IGFBP7 (11715501_s_at) / RFU REEP3 (11722064_at) / Fold change /veh REEP3 (11722064_at) / RFU IGLL1 (11728026_x_at) / Fold change /veh IGLL1 (11728026_x_at): dose or concentration left out as unconfirmed
Details: MV-4-11 cells, 48 hours

## Nc1ccc(-c2cccs2)cc1NC(=O)c1ccc2c(c1)cc(C1CC1)n2CCN1CCOCC1 [ACY-1035]
  RFU TMEM51 (11727254_a_at): 14.11 RFU
